This experiment has as its target T1, hDHHC20 (Homo sapiens, UniProt Q5W0Z9).
T1 sequence (Q5W0Z9 1-365): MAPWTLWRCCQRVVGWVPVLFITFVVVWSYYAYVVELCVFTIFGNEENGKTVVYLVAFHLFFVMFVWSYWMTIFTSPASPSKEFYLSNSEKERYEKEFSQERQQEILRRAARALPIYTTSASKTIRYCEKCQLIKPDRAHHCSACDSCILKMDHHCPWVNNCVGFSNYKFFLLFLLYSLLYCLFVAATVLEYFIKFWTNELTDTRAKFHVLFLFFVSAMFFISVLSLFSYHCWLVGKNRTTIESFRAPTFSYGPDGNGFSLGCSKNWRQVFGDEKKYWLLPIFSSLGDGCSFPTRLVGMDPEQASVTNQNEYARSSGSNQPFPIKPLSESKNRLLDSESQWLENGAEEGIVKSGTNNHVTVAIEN
Briefly: coupled-enzyme PAT activity inhibition assay. The format is biochemical.

This is an account of results in PMC8851515 (Proceedings of the National Academy of Sciences of the …, 2022).

With `CCCCCCCCCCCCCCC(Br)C(=O)O` (stereo not shown) [2-bromopalmitic acid], it took 4.5 µM to reach half-maximal inhibition (IC50).

As a reminder, the IC50 is the concentration that inhibits the measured activity by half. High values mean weaker potency in that assay, low ones greater potency in that assay.
